Data on 4 compounds can be found in US20230233569A1 (Revolution Medicines, Inc., priority 2020, published 2023).

In general, IC50 refers to the concentration that gives 50% inhibition. One may read the EC50 as the concentration that produces a half-maximal response.

For assay [1], the system named is AsPC-1 (K-Ras G12D). In words: CellTiter-Glo cell viability assay. To be noted: Homo sapiens, ASPC1, 120 h, read-out: AsPC-1 Cell Viability assay data IC50, K-Ras G12D, 5-day treatment. Type of assay: cell-based. The method, boiled down: (§1)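 Luminescence from CellTiter-Glo serves as the viability read-out after cells are treated with compound for 5 days. Each well's signal is divided by the DMSO average and multiplied by 100, and curves are fitted by four-parameter logistic regression.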
A general note: ATP-based viability assays read luminescence as a measure of living cells.

Assay [2] concerns NCI-H358 (K-Ras G12C). The assay can be described thus: CellTiter-Glo cell viability assay. The format is cell-based. To be noted: Homo sapiens, NCI-H358, 120 h, read-out: H358 Cell Viability assay data IC50, K-Ras G12C, 5-day treatment. Summed up: as §1
In assay [3] the target is KRAS G12V (Homo sapiens, UniProt P01116+P62937, G12V). The assay can be described thus: Ras-Raf disruption / FRET / MOA assay (BRAF RBD). The format is biochemical. To be noted: KRAS G12V FRET data IC50, Ras-Raf disruption, with Cyclophilin A. Summed up: (§2)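 TR-FRET in 25 mM HEPES pH 7.3, 100 mM NaCl, 5 mM MgCl2, 0.1% BSA, 0.002% Tween20 with 25 μM Cyclophilin A, 12.5 nM His6-Ras-GMPPNP, 50 nM GST-BRAF RBD; compound 10-point 3-fold series from 30 μM. After 3 h at 25 °C, Eu anti-His/APC anti-GST added for 1.5 h; IC50 from ratio decrease versus DMSO.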
Sequence of KRAS G12V (P01116 1-169 isoform P01116-2 G12V limits assumed): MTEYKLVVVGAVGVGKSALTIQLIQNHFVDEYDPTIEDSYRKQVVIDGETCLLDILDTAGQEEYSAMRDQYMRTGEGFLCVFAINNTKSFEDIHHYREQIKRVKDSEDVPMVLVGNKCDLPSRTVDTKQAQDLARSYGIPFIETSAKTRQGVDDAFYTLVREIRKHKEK
Sequence of KRAS G12V (P62937 whole entry): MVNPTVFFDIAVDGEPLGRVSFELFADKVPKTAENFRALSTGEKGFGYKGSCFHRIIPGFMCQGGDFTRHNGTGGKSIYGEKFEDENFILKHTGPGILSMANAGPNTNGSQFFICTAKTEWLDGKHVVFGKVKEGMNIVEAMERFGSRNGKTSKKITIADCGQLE

Assay [4] concerns the target KRAS G12D (Homo sapiens, UniProt P01116+P62937, G12D). The assay can be described thus: Ras-Raf disruption / FRET / MOA assay (BRAF RBD). Type of assay: biochemical. To be noted: KRAS G12D FRET data IC50, Ras-Raf disruption, with Cyclophilin A. Summed up: as §2
Assay [5] addresses NRAS Q61R (Homo sapiens, UniProt P01111+P62937, Q61R). The assay can be described thus: Ras-Raf disruption / FRET / MOA assay (BRAF RBD). Type of assay: biochemical. Summed up: as §2
Assay [6] addresses KRAS Q61H (Homo sapiens, UniProt P01116+P62937, Q61H). In words: Ras-Raf disruption / FRET / MOA assay (BRAF RBD). The format is biochemical. Summed up: as §2
Assay [7] has as its target NRAS WT (Homo sapiens, UniProt P01111+P62937). In words: Ras-Raf disruption / FRET / MOA assay (BRAF RBD). The format is biochemical. Summed up:
as §2

The target of assay [8] is KRAS G13C (Homo sapiens, UniProt P01116+P62937, G13C). In words: Ras-Raf disruption / FRET / MOA assay (BRAF RBD). The format is biochemical. To be noted: KRAS G13C FRET data IC50, Ras-Raf disruption, with Cyclophilin A. Summed up: as §2
Sequence of KRAS G13C (P01116 1-169 isoform P01116-2 G13C limits assumed): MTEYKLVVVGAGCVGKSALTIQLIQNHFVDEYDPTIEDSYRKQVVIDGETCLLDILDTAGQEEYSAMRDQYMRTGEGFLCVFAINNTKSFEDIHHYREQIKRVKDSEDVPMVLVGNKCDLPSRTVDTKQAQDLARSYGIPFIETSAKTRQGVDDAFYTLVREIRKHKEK
Sequence of KRAS G13C (P62937 whole entry): as the sequence (P62937 whole entry) above
The target of assay [9] is KRAS WT (Homo sapiens, UniProt P01116+P62937). In words: Ras-Raf disruption / FRET / MOA assay (BRAF RBD). Type of assay: biochemical. To be noted: KRAS WT FRET data IC50, Ras-Raf disruption, with Cyclophilin A. Summed up:
as §2

The target of assay [10] is KRAS G13D (Homo sapiens, UniProt P01116+P62937, G13D). In words: Ras-Raf disruption / FRET / MOA assay (BRAF RBD). Type of assay: biochemical. To be noted: KRAS G13D FRET data IC50, Ras-Raf disruption, with Cyclophilin A. The method, boiled down:
as §2

Assay [11] deals with NRAS G12C (Homo sapiens, UniProt P01111+P62937, G12C). The assay can be described thus: Ras-Raf disruption / FRET / MOA assay (BRAF RBD). Type of assay: biochemical. To be noted: NRAS G12C FRET data IC50, NRAS G12C. Summed up: as §2
Sequence of NRAS G12C (P01111 whole entry G12C): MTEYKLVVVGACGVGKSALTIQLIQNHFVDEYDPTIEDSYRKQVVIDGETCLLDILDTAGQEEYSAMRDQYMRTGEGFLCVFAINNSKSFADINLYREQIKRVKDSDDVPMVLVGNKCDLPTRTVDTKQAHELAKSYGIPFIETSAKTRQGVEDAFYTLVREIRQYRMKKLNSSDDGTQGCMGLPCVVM
Sequence of NRAS G12C (P62937 whole entry): as the sequence (P62937 whole entry) above
Assay [12] concerns the target NRAS Q61K (Homo sapiens, UniProt P01111+P62937, Q61K). In words: Ras-Raf disruption / FRET / MOA assay (BRAF RBD). Type of assay: biochemical. Summed up:
as §2

Assay [13] has as its target KRAS G12S (Homo sapiens, UniProt P01116+P62937, G12S). In words: Ras-Raf disruption / FRET / MOA assay (BRAF RBD). The format is biochemical. To be noted: KRAS G12S FRET data IC50, Ras-Raf disruption, with Cyclophilin A. Summed up: as §2
The target of assay [14] is KRAS G12C (Homo sapiens, UniProt P01116+P62937, G12C). In words: Ras-Raf disruption / FRET / MOA assay (BRAF RBD). The format is biochemical. To be noted: KRAS G12C FRET data IC50, Ras-Raf disruption, with Cyclophilin A. The method, boiled down:
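His6-K-Ras G12C-GMPPNP (12.5 nM), GST-BRAF RBD (50 nM) and tagless Cyclophilin A (25 μM) incubated 3 h at 25 °C with compound (10-point 3-fold series from 30 μM), pH 7.3 HEPES buffer. Anti-His Eu/anti-GST APC added for 1.5 h; decreased TR-FRET ratio vs DMSO gives IC50.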

Assay [15] relates to AsPC-1 (K-Ras G12D). The assay can be described thus: Potency assay: pERK. The format is cell-based. To be noted: Homo sapiens, ASPC1, read-out: pERK EC50.

Sequence of KRAS G13D (P01116 1-169 isoform P01116-2 G13D limits assumed): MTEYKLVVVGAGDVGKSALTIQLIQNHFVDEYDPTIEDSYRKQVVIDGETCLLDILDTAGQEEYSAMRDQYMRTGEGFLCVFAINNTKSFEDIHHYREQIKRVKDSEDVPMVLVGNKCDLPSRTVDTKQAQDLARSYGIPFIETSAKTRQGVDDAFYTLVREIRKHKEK
Sequence of KRAS G13D (P62937 whole entry): as the sequence (P62937 whole entry) above
Sequence of KRAS G12D (P01116 1-169 isoform P01116-2 G12D limits assumed): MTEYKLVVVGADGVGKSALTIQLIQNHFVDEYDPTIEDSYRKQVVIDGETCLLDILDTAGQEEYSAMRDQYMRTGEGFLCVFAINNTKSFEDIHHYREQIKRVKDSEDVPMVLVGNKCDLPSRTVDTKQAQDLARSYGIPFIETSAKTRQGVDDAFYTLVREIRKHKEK
Sequence of KRAS G12D (P62937 whole entry): as the sequence (P62937 whole entry) above
Sequence of KRAS G12C (P01116 1-169 isoform P01116-2 G12C limits assumed): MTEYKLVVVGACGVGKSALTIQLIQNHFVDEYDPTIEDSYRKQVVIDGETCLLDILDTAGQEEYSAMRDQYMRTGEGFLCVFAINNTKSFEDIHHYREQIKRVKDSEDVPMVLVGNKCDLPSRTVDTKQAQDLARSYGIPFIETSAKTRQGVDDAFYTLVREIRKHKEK
Sequence of KRAS G12C (P62937 whole entry): as the sequence (P62937 whole entry) above
Sequence of KRAS G12S (P01116 1-169 isoform P01116-2 G12S limits assumed): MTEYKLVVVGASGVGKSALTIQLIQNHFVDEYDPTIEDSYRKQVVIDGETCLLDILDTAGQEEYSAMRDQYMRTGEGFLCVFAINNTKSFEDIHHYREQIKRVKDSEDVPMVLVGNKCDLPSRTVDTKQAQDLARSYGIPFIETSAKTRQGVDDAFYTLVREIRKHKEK
Sequence of KRAS G12S (P62937 whole entry): as the sequence (P62937 whole entry) above
Sequence of KRAS Q61H (P01116 1-169 isoform P01116-2 Q61H limits assumed): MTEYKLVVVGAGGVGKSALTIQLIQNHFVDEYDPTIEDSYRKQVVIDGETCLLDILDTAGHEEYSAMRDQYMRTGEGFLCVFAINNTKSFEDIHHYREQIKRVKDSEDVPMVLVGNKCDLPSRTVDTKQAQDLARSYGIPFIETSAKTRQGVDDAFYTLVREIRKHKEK
Sequence of KRAS Q61H (P62937 whole entry): as the sequence (P62937 whole entry) above
Sequence of KRAS WT (P01116 1-169 isoform P01116-2 limits assumed): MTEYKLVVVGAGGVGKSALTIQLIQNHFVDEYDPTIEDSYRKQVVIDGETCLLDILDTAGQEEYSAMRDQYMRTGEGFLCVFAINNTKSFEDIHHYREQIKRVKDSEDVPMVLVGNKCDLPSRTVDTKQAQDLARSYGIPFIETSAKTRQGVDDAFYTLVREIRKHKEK
Sequence of KRAS WT (P62937 whole entry): as the sequence (P62937 whole entry) above
Sequence of NRAS WT (P01111 whole entry): as the sequence (P01111 whole entry G12C) above, with C12G counted along it
Sequence of NRAS WT (P62937 whole entry): as the sequence (P62937 whole entry) above
Sequence of NRAS Q61K (P01111 whole entry Q61K): as the sequence (P01111 whole entry G12C) above, with C12G, Q61K counted along it
Sequence of NRAS Q61K (P62937 whole entry): as the sequence (P62937 whole entry) above
Sequence of NRAS Q61R (P01111 whole entry Q61R): as the sequence (P01111 whole entry G12C) above, with C12G, Q61R counted along it
Sequence of NRAS Q61R (P62937 whole entry): as the sequence (P62937 whole entry) above

As for `CCn1c(-c2cccnc2[C@H](C)OC)c2c3cc(ccc31)-c1cc(O)cc(c1)C[C@H](NC(=O)[C@H](C(C)C)N(C)C(=O)CN(C)C(=O)[C@@H]1N[C@H]1C(F)(F)F)C(=O)N1CCC[C@H](N1)C(=O)OCC(C)(C)C2` [Example 260], the IC50 in assay [1] is 100 to 1000 nM; in assay [2] it was 10 to 100 nM; in assay [3], 10 to 100 nM; in [4] it was 10 to 100 nM; in [5], 100 to 1000 nM; in [6], 10 to 100 nM. Besides, the IC50 in assay [7] was 10 to 100 nM; in assay [8] it was less than 10 nM; in assay [9], 10 to 100 nM; in assay [10] it was 10 to 100 nM; in [11], 10 to 100 nM; in [12], 10 to 100 nM. The IC50 in assay [13] and in assay [14] was 10 to 100 nM in each case. For the same compound, the 50% effective concentration (EC50) in assay [15] was less than 5000 nM.
In the case of `CCn1c(-c2cccnc2[C@H](C)OC)c2c3cc(ccc31)-c1cc(O)cc(c1)C[C@H](NC(=O)[C@H](C(C)C)N(C)C(=O)CN(C)C(=O)[C@H]1N[C@@H]1C(F)(F)F)C(=O)N1CCC[C@H](N1)C(=O)OCC(C)(C)C2` [Example 261], the concentration for half-maximal inhibition (IC50) in [1] was 100 to 1000 nM; in assay [2], less than 10 nM; in assay [3] it was 10 to 100 nM; in assay [4] it was 10 to 100 nM; in [5], 100 to 1000 nM; in [6] it was 10 to 100 nM. Moreover, the IC50 in [7] lay in the range of 10 to 100 nM; in assay [8], 10 to 100 nM; in assay [9], 10 to 100 nM; in assay [10] it was 10 to 100 nM; in assay [11], 10 to 100 nM; in assay [12], 100 to 1000 nM. Moreover, the IC50 in assay [13] and in assay [14] was 10 to 100 nM each time. For the same compound, the concentration for a half-maximal effect (EC50) in [15] is less than 5000 nM.
For the compound `CC[C@H]1N[C@H]1C(=O)N(C)CC(=O)N(C)[C@H](C(=O)N[C@H]1Cc2cc(O)cc(c2)-c2ccc3c(c2)c(c(-c2cccnc2[C@H](C)OC)n3CC)CC(C)(C)COC(=O)[C@@H]2CCCN(N2)C1=O)C(C)C` [Example 262], the IC50 was in the range of 100 to 1000 nM in [1]; 10 to 100 nM in assay [2]; 10 to 100 nM in assay [3]; 100 to 1000 nM in [4]; 100 to 1000 nM in [5]; 10 to 100 nM in [6]. Further, the concentration for half-maximal inhibition (IC50) in assay [7] lay in the range of 10 to 100 nM; in [8], 10 to 100 nM; in assay [9], 10 to 100 nM; in [10], 10 to 100 nM; in [11] it was 10 to 100 nM; in assay [12], 100 to 1000 nM. For the same compound, the IC50 in [13] and in assay [14] was 10 to 100 nM in each case. In addition, the EC50 in [15] was less than 5000 nM.
`CC[C@@H]1N[C@@H]1C(=O)N(C)CC(=O)N(C)[C@H](C(=O)N[C@H]1Cc2cc(O)cc(c2)-c2ccc3c(c2)c(c(-c2cccnc2[C@H](C)OC)n3CC)CC(C)(C)COC(=O)[C@@H]2CCCN(N2)C1=O)C(C)C` [Example 263]: the IC50 is 100 to 1000 nM in [1]; 10 to 100 nM in assay [2]; 10 to 100 nM in [3]; 10 to 100 nM in assay [4]; 100 to 1000 nM in [5]; 10 to 100 nM in assay [6]. Further, the IC50 was 10 to 100 nM in assay [7]; 10 to 100 nM in assay [8]; 10 to 100 nM in [9]; 10 to 100 nM in [10]; less than 10 nM in assay [11]; 100 to 1000 nM in [12]. For the same compound, the half-inhibitory concentration (IC50) was 10 to 100 nM in assay [13] and less than 10 nM in [14]. In assay [15], the EC50 is less than 5000 nM.
